# Laboratory results published in ChEMBL document CHEMBL1201862, “PubChem BioAssay data set” (2004).
# pIC50: −log10 of the molar value. Active and inactive are the calls of the source.
# Experiments:
# [1] = molecular target: T1, Delta-type opioid receptor (Homo sapiens, UniProt P41143); test: HTS Image-Based Screen for Antagonists of the DOR Receptor. [Related pubchem assays (depositor defined):AID1777, AID1785, AID1786, AID2133]; type: functional
# [2] = molecular target: Mu-type opioid receptor (Homo sapiens, UniProt P35372); test: HTS Image-Based Screen for Agonists of the MOR Receptor. [Related pubchem assays (depositor defined):AID1777, AID1785, AID1786, AID2133]; type: functional;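 also: imaging of beta-arrestin GFP recruitment into spots after receptor activation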
# [3] = molecular target: T1, Delta-type opioid receptor; test: HTS Image-Based Screen for Agonists of the DOR Receptor. [Related pubchem assays (depositor defined):AID1777, AID1786, AID2133]; type: functional
# [4] = molecular target: T2, Beta-galactosidase (Escherichia coli, UniProt Q8VNN2); test: PubChem AID 485352; type: functional
# [5] = molecular target: G-protein coupled receptor 55 (Homo sapiens, UniProt Q9Y2T6); test: inhibition of LPI-stimulated GPR55 beta-arrestin translocation – imaging, U2OS, beta-arrestin-GFP, LPI agonist, primary screen (AID 2013); type: functional;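 also: antagonist potency measured as reduced agonist-driven arrestin aggregation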
# [6] = molecular target: T3, Type-1 angiotensin II receptor (Homo sapiens, UniProt P30556); test: antagonism of angiotensin II type 1 receptor – cell-based, uHTS hits, selectivity assay for APJ receptor antagonist project, dose response (AID 463214); type: functional;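 also: antagonist potency against angiotensin II stimulated AT1 response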
# T3 sequence (P30556 whole entry): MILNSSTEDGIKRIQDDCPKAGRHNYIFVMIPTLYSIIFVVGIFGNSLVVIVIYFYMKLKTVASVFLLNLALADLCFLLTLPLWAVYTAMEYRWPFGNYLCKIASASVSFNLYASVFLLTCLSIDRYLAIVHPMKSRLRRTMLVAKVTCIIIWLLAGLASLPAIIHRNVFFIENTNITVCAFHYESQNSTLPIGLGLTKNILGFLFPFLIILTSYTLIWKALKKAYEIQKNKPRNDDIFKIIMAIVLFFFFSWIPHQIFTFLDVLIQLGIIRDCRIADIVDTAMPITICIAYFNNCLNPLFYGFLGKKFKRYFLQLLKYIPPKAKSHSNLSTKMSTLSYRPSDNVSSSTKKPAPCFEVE
# [7] = molecular target: T4, Kappa-type opioid receptor (Homo sapiens, UniProt P41145); type: functional
# [8] = molecular target: Bifunctional protein GlmU (Mycobacterium tuberculosis, UniProt P9WMN3); test: Inhibitors of Mycobacterial Glucosamine-1-phosphate acetyl transferase (GlmU). Secondary screen.; design: species or system Mycobacterium tuberculosis H37Rv
# [9] = molecular target: T2, Beta-galactosidase; type: functional
# [10] = molecular target: T4, Kappa-type opioid receptor; type: functional; remark: listed apart in the source
# [11] = system: CHO; test: CHO cell viability loss, potency – luminescence, cytotoxicity control for TLR9-MyD88 binding inhibitor project, dose response (AID 588339); type: functional, cell-based, hamster; conditions: Cricetulus griseus;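 also: CHO cells stably coexpressing TLR9 and MyD88 fusions from primary screen; compound exposure lasted 48 hours before viability readout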
# [12] = system: Vero; test: viability of Vero cells under compound – cytotoxicity control for flavivirus capping enzyme inhibitors (AID 588742); type: functional; conditions: Chlorocebus sabaeus
# [13] = molecular target: Beta Lactamase (Pseudomonas aeruginosa, UniProt Q932Y6); test: BLA reporter interference, concentration series – BLA reporter cells, FRET fluorescence, artefact control for TLR9-MyD88 binding inhibitor project, dose response (AID 588341); type: cell-based;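 also: cell based assay in CHO-K1 cells stably expressing beta-lactamase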
# [14] = molecular target: Genome polyprotein (dengue virus type 2, UniProt P29990); test: flavivirus cap methylation enzyme inhibition – biochemical, confirmation dose response, primary screen (AID 588689); type: functional
# [15] = molecular target: Paired box protein Pax-8 (Homo sapiens, UniProt Q06710); test: PAX8 transcriptional activity inhibition in RMG-I – RMG-I cells, luciferase, cherry-pick, dose response (AID 687027); type: functional, cell-based;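 also: luciferase reporter driven by Pax8 target thyroperoxidase promoter measured by SteadyGlo luminescence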
# [16] = reduced cellular PGC1a acetyl-lysine signal – cell-based, cherry-picked samples, dose response (AID 720514); type: functional;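 also: potency may reflect raised or lowered acetylation signal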
# [17] = molecular target: RNA-editing ligase 1, mitochondrial (Trypanosoma brucei brucei, UniProt P86926); test: inhibition of trypanosome RNA editing ligase – biochemical, fluorescence, Trypanosoma brucei, dose response (AID 1117295); type: functional
# [18] = growth inhibition of yeast DHODH-expressing 3D7 parasites – SYBR Green, dry powder samples, dose response (AID 1159570); type: functional, cell-based;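 also: parasite growth measured after 72 hours of compound exposure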
# [19] = toxicity to human HepG2 hepatoma cells – cell-based, plate reader, dry powder samples, cytotoxicity control, dose response (AID 1159569); type: functional;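 also: inhibitor potency with signal falling toward the positive control level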
# [20] = P. falciparum Dd2 growth inhibitors, dose response, SYBR Green, cherry-picked samples (AID 1159567); type: functional, cell-based
# [21] = Dd2 malaria parasite growth inhibition potency – SYBR Green, dry powder samples, dose response (AID 1159566); type: functional, cell-based;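 also: potency for growth inhibition with lower SYBR green DNA signal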
# [22] = growth inhibition of PfATP4-mutant resistant parasites – NITD609-resistant line, SYBR Green, dry powder, dose response (AID 1159571); type: functional, cell-based;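 also: parasites synchronized at ring stage by sorbitol before testing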
# [23] = molecular target: Protein Tat (Human immunodeficiency virus type 1 group M subtype B (isolate HXB2)(HIV-1), UniProt P04608); type: functional;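 also: tat binding to TAR RNA read out by fluorescence polarization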
# [24] = Luminescence-based cell-based high throughput dose response assay to identify activators of the DAF-12 from the parasite S. stercoralis (ssDAF-12).; type: functional
# [25] = molecular target: T5, Oxysterols receptor LXR-beta (Homo sapiens, UniProt P55055); test: LXR agonists, Gal4 luciferase reporter, dose response, counter-screen for ssDAF-12 agonist project, cell-based, luminescence, HEK293, S. stercoralis campaign (AID 720737); type: functional; conditions: read-out: IC50 (the source's name)
# T5 sequence (P55055 whole entry): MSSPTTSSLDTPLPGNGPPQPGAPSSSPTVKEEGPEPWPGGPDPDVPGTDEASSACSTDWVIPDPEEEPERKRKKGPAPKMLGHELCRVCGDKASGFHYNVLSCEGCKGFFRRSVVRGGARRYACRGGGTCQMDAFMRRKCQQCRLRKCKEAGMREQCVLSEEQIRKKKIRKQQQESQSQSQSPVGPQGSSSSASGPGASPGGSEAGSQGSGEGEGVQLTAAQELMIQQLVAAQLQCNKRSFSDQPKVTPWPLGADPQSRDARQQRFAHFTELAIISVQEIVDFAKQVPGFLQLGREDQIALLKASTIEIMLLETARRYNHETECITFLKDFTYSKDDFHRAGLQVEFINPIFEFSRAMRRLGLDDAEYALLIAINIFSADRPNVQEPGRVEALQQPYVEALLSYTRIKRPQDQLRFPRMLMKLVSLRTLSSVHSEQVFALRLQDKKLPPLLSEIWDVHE
# [26] = molecular target: T6, Voltage-gated N-type calcium channel alpha-1B subunit/Amyloid beta A4 precursor protein-binding family A member 1 (Homo sapiens, UniProt Q00975+Q02410); type: protein assay
# [27] = molecular target: T6, Voltage-gated N-type calcium channel alpha-1B subunit/Amyloid beta A4 precursor protein-binding family A member 1; type: protein assay; remark: listed apart in the source
# [28] = molecular target: T7, Corticotropin-releasing factor receptor 2/Corticotropin-releasing factor-binding protein (Homo sapiens, UniProt P24387+Q13324); test: Dose Response confirmation of uHTS hits for small molecule antagonists of the CRF-binding protein and CRF-R2 receptor complex.; type: functional; conditions: read-out: IC50_Mean
# T7 sequence (Q13324 whole entry): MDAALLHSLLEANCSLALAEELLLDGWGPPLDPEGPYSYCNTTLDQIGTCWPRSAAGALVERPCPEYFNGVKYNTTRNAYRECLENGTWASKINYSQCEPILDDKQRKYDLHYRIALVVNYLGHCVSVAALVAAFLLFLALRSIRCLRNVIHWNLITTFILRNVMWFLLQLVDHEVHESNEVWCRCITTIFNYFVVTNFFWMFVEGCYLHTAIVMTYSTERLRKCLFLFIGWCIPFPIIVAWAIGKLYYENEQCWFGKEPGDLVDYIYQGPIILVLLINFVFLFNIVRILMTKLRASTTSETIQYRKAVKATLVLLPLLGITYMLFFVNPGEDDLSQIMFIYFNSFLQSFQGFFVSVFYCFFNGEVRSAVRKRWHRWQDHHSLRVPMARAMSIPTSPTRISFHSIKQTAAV
# T7 sequence (P24387 whole entry): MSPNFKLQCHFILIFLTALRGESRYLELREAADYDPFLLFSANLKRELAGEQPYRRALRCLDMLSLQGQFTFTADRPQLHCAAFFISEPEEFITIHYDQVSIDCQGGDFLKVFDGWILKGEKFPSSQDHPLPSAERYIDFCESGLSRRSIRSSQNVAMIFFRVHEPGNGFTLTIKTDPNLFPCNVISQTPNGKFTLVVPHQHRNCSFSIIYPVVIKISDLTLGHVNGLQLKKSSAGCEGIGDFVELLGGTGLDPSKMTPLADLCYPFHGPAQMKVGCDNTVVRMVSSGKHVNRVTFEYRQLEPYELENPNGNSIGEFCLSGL
# [29] = molecular target: T7, Corticotropin-releasing factor receptor 2/Corticotropin-releasing factor-binding protein; test: activators of CRF receptor 2 with binding protein – uHTS hits, confirmation (AID 602473); type: functional; conditions: read-out: EC50_Mean
# [30] = molecular target: Caspase-6 (Homo sapiens, UniProt P55212); test: inhibition of CASP6 peptide cleavage – biochemical, VEID-R110 fluorescence, cherry-pick, dose response (AID 720632)
# [31] = molecular target: NAD-dependent protein deacylase sirtuin-5, mitochondrial (Homo sapiens, UniProt Q9NXA8); test: sirtuin-5 deacylation blockers, concentration series – biochemical, fluorescence imaging, cherry-pick, set 5, dose response (AID 720591);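 also: desuccinylation of succinyl peptide AMC substrate read as fluorescence after trypsin release; potency of inhibitors that lower fluorescence and may act on trypsin instead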
# [32] = NIH-3T3 fibroblast cytotoxicity, dose response, cytotoxicity control, cell-based, fluorescence, Alamar Blue, secondary assay (AID 2327); type: functional;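 also: NIH-3T3 mouse fibroblasts cultured with fluconazole at 8 µg/mL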
# [33] = fluconazole-exposed Candida albicans growth modulators – fluorescence, retest, confirmation (AID 2467); type: functional, cell-based
# [34] = molecular target: T8, Serine/threonine-protein phosphatase (Candida dubliniensis (strain CD36 / CBS 7987 / NCPF 3949 / NRRLY-17841) (Yeast), UniProt B9W6M3); test: blockers of CaCl2-induced CDRE-lacZ signaling – S. cerevisiae, luminescence, secondary, dose response (AID 2388); type: functional, cell-based;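 also: yeast reporter cells carrying a calcineurin-responsive lacZ construct stimulated with calcium chloride; luminescent beta-galactosidase reporter signal in whole cells rather than isolated phosphatase activity; potency for inhibition where a drop in reporter signal means calcineurin blockade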
# T8 sequence (B9W6M3 whole entry): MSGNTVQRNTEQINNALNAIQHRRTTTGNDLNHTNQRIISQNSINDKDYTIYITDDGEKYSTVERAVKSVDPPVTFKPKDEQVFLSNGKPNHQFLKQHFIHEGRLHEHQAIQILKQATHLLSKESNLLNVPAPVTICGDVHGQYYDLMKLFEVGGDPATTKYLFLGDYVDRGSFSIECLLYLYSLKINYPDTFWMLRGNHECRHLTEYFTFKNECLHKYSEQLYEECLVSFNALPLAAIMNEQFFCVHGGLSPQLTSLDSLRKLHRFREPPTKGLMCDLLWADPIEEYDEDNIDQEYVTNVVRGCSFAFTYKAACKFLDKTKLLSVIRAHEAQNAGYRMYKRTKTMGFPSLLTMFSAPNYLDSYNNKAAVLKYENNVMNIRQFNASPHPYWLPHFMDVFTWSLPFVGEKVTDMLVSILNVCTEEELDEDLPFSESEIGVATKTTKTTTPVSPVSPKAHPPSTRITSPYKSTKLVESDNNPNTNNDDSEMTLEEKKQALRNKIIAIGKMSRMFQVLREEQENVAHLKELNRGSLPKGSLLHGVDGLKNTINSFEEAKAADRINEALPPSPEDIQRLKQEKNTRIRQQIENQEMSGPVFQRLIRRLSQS
# [35] = molecular target: ATP-dependent molecular chaperone HSP82 (Candida albicans (strain WO-1) (Yeast), UniProt C4YTQ8); test: steroid-induced GRE reporter decrease in yeast – S. cerevisiae, luminescence, Hsp90 inhibitor project, dose response (AID 2400); type: functional, cell-based;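 also: beta-galactosidase luminescence from glucocorticoid response element reporter as proxy for Hsp90 function; inhibitor potency where signal loss means Hsp90 inhibition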
structure (smiles),measurement,setting,value
Cc1c(Nc2cc(Cl)c3nonc3c2[N+](=O)[O-])c(=O)n(-c2ccccc2)n1C,IC50,[1],> 32 µM (inactive)
same,EC50,[2],> 32 µM (inactive)
same,EC50,[3],> 32 µM (inactive)
same,EC50,[4],> 40 µM (inactive)
same,IC50,[5],3.48 µM (active)
same,IC50,[6],2.33 µM (active)
same,IC50,[7],4.14 µM (active)
same,IC50,[8],123 µM (active)
same,EC50,[9],> 31.5 µM (inactive)
same,pIC50,[10],4.52
same,IC50,[11],1.53 µM (active)
same,CC50,[12],12.7 µM (active)
same,IC50,[13],6 µM (active)
same,IC50,[14],21.4 µM (active)
same,AC50,[15],8.97 µM (active)
Cc1ccc(S(=O)(=O)N2CCCCC2C(=O)O)cc1 (stereo not drawn),AC50,[16],17.6 µM (active)
C#CCOCCOCCOCCNc1nc(N2CCN(C(=O)[C@H](CCCCN)n3cc([C@@H](N)C(C)CC)nn3)CC2)nc(N2CCN(C(=O)[C@H](CCCCN)n3cc([C@@H](N)C(C)CC)nn3)CC2)n1 (stereo partly drawn),IC50,[17],> 96.6 µM (inactive)
COc1ccc(C#Cc2ccc([C@@H]3[C@@H](CO)N4C(=O)CN(C(=O)c5ccccc5)C[C@H]34)cc2)cc1,AC50,[18],1.99 µM (active)
same,AC50,[19],33.4 µM (active)
same,AC50,[20],2.48 µM (active)
same,AC50,[21],1.63 µM (active)
same,AC50,[22],1.35 µM (active)
COC(=O)C1=C(C)N(C)C(NCc2ccccc2C(F)(F)F)=NC1c1cccc(F)c1 (stereo not drawn),IC50,[17],> 96.6 µM (inactive)
CC1CCCN(C(=O)CN2CCN(C(=O)c3ccco3)CC2)C1 (stereo not drawn),IC50,[23],> 100 µM (active)
O=c1oc(-c2cc3ccccc3o2)nc2sc3c(c12)CCCC3,IC50,[24],> 67.5 µM (inactive)
same,EC50,[25],> 67.5 µM (inactive)
COc1cc2c(cc1OC)-c1cc(Nc3ccc(C(=O)O)cc3)nc(=O)n1CC2,IC50,[26],17.6 µM (active)
same,IC50,[27],> 50 µM (inactive)
same,IC50,[28],> 47.1 µM (inactive)
same,EC50,[29],> 53 µM (inactive)
same,AC50,[30],28.9 µM (active)
same,AC50,[31],4.29 µM (active)
Cc1ccc(-n2nc(C)c3c(C)cc(O)nc32)cc1,EC50,[32],> 150 µM (inactive)
same,EC50,[33],1.54 µM (active)
same,EC50,[34],> 180 µM (inactive)
same,EC50,[35],> 150 µM (inactive)
same,IC50,[24],> 67.5 µM (inactive)
same,EC50,[25],> 67.5 µM (inactive)
